Results reported in patent US12258477B2, “Silicon-substituted rhodamine dyes and dye conjugates” (Life Technologies Corporation, priority 2018, dated 2025).
Entries after “also recorded” stand apart in the source; their conditions may differ.

Tests used:
Live HeLa cells [1] = test: Live cell nuclear staining, fluorescence microscopy vs SiR-Hoechst (Example 2); type: cell-based; conditions: 1 μM and 2 μM
Description: The fluorescence intensity of Compound 4 was compared to SiR-Hoechst (Spirochrome, Switzerland) using fluorescence microscopy. Live HeLa cells were stained with SiR-Hoechst or Compound 4 at 1 μM or 2 μM for 30 minutes at 37° C. After washing with LCIS buffer to remove excess dye, images from 5 replicates were collected using the Cy5 channel of a fluorescence microscope and analyzed using HCS Studio software. Representative images of cells are shown in FIGS. 3A-3B (stained with SiR-Hoechst) and FIGS. 3C-3D (stained with Compound 4). […] The mean nuclear signal intensity was 48% higher in the cells stained with Compound 4 than in the cells stained with SiR-Hoechst, based on averaging the ratios of fluorescence intensity at 1 μM and 2 μM.

tubulin [2] = test: Tubulin staining of live cells with docetaxel probes vs SiR-Taxol (Examples 3, 13); type: cell-based; conditions: live HeLa, 0.5 μM, 30 min 37 °C
Description: The fluorescence intensity of Compound 5 (a tubulin probe using docetaxel as the target-binding moiety) was compared to SiR-Taxol (Spirochrome, Switzerland). Live HeLa cells were stained with 0.5 μM Compound 5 or SiR-Taxol for 30 minutes at 37° C. and prepared for imaging. Images are shown in FIGS. 4A-4B (stained with Compound 5), and FIGS. 4C-4D (stained with SiR-Taxol).
The fluorescence intensity of two diasteromers of Compound 5 and a mixture of two isomers was compared to SiR-Taxol (Spirochrome, Switzerland). Live HeLa cells were stained with 0.5 μM of each compound for 30 minutes at 37° C. and prepared for imaging.

[3] = Excitation and emission maxima of compounds dissolved in solvents; type: physicochemical
Description: Certain compounds were tested when dissolved in solvents. Three replicates were performed to determine the excitation and emission maxima.

Fixed HeLa cells = test: Fixed cell nuclear staining and photostability vs TO-PRO-3 (Example 4); type: cell-based; conditions: 1 μM, Cy5 channel
Description: The fluorescence intensity and photostability of Compound 7 were compared with TO-PRO-3, a fixed cell nucleic acid stain with far-red fluorescence. Fixed HeLa cells were stained with 1 μM Compound 7 or TO-PRO-3 for 30 minutes at RT and prepared for imaging using the Cy5 channel of a fluorescence microscope.

[4] = Fluorescence characteristics, dye only dissolved in water; type: physicochemical; conditions: for Emission in water (λem) / absorption in water (λabs): Table 6, in water; for shift of absorption maxima to blue when each vinyl group was changed to a methyl: relative to Compound 11
Description: (§1) The fluorescence characteristics of various disclosed compounds and ALEXA FLUOR™ 647 dye (AF647) dissolved in water (dye only) or as goat anti-mouse (GAM) IgG conjugates dissolved in phosphate buffered saline (PBS) were determined. Three replicates were performed to determine the excitation and emission maxima and quantum yield. Quantum yield was measured for the dye only samples.
Experiments were performed to examine the effect of different SiR substitution patterns on absorption maxima using Compounds 10A, 11, 12, and 13. One or both of the vinyl groups of Compound 11 are replaced with methyl in Compounds 10A and 12, respectively. In Compound 13, one methyl group on each of the two exocyclic amines was eliminated relative to Compound 12. […] A 30 nm shift was observed when one methyl group on each of the two exocyclic amines was eliminated (Table 6). Therefore, modification of SiR dyes using groups linked to the SiR moiety through the Si have a smaller effect than the removal of methyl groups.

[5] = Fluorescence characteristics of goat anti-mouse (GAM) IgG conjugates in PBS; type: physicochemical; conditions: for Max Abs / Max Em: GAM IgG conjugate in PBS; for Absorption of IgG conjugates / Emission of IgG conjugates: Table 6, IgG conjugates in PBS
Description: as §1
The effect of conjugation of an SiR, in this example Compounds 8, 10A, and 12, to IgG on absorbance (shown in FIG. 11A) and on emission (shown in FIG. 11B) maxima were compared with IgG-AF647. The absorption and emission maxima of the SiR-conjugates (665 nm/690 nm) are approximately 20 nm red-shifted compared with AF647 conjugate. The emission maximum shifted 15 nm to red.

Live HeLa cells [6] = test: Live cell nuclear staining with ESP-SiR isomers, HeLa (Example 12); type: cell-based; conditions: 1 μM, 30 min 37 °C
Description: The fluorescence intensity of each isomer of Compound 4 (Compound 4B and Compound 4C) was compared using fluorescence microscopy. A DMSO stock solution (1 mM) was used to prepare solutions of each isomer to a final concentration of 5, 2.5, 1.25 and 0.6 μM in PBS containing probenecid.
Live HeLa or A549 cells were stained with each concentration of isomer for 30 minutes at 37° C. After washing with LCIS buffer to remove excess dye, images from 5 replicates were collected using the Cy5 channel of a fluorescence microscope and analyzed using HCS Studio software. […] The mean nuclear signal intensity was almost 2-fold higher in both cell types stained with Compound 4B than in the cells stained with Compound 4C at each of the concentrations tested.
The fluorescence intensity of Compound 4B and 4C was compared to SiR-Hoechst (Spirochrome, Switzerland) using fluorescence microscopy. Live HeLa cells were stained with SiR-Hoechst or Compound 4B or 4C at 1 μM for 30 minutes at 37° C. After washing with LCIS buffer to remove excess dye, images from 5 replicates were collected using the Cy5 and D API channels of a fluorescence microscope and analyzed using HCS Studio software.

A549 cells = test: Photobleaching of dye-labeled secondary antibody conjugates in fixed cells without anti-fade medium; type: cell-based; conditions: GAM antibody conjugates (13 DOL 4.7, 14 DOL 4.0, AF647 DOL 4.9); over 700 seconds exposure, no anti-fade medium
Description: A549 cells were plated at a density of 5,000 cells per well on Greiner 96 well plates and allowed to adhere overnight. The following day, they were treated for two hours at 37° C. with 50 μM etoposide to induce phosphorylation of pH2AX for antibody probing, then fixed for 20 minutes at room temperature in 4% PFA, prepared in PBS. After fixation, cells were rinsed 3× in PBS and permeabilized for 20 minutes with 0.1% Triton X-100, prepared in PBS. Following Triton treatment, cells were washed 3× in PBS and placed in blocking solution, made with 3% BSA in PBS. Each plate was treated with primary antibody, prepared in blocking solution at 5 μg/mL, either […]. Following incubation with primary antibody, cells were washed 3× in PBS and stored in blocking solution before probing with secondary antibody. Secondary antibody labeled with Compound 13 (DOL 4.7); Compound 14 (DOL 4.0) or AF647 (DOL 4.9) was prepared from 5 μg/mL in blocking solution and cells were incubated for one hour at room temperature before washing 3× in PBS and moving plates to the CX-5 CellInsight for quantification of signal. The fluorescent signal data was collected every second for over 700 seconds' period. […]
Fluorescence intensity was monitored in samples mounted without anti-fade medium over a period of about 12 minutes of exposure to excitatory light.

tubulin [7] = test: Immunofluorescence tubulin staining with dye-labeled antibody conjugates vs AF647 (Example 9); type: cell-based, mouse
Description: The fluorescence intensity of SiR conjugates, Compound 10A (DOL=15) and Compound 10A (DOL=10), where DOL is the degree of labeling, were compared to an AF647 conjugate using fluorescence microscopy. Live mouse cells were stained with mouse anti-tubulin conjugated to AF647 (shown in FIG. 12A), or mouse anti-tubulin conjugated with Compound 10A (DOL=15 shown in FIG. 12B) at increasing concentrations for 60 minutes at 25° C. After washing with PBS buffer to remove excess dye, images were collected using the Cy5 channel of a fluorescence microscope and analyzed using integrated software. […] The SiR dyes gave images 6-8 fold dimmer that AF647 in the Cy5 channel, consistent with the shifted maxima discussed above. […] Little to no photobleaching was observed during imaging.

Compound | Max Abs ([4]; Dye Only in water) [nm] | Max Em ([4]; Dye Only in water) [nm] | Quantum Yield ([4]; Dye Only in water) | Quantum Yield ([4]; Table 6) [%] | Emission in water (λem) [4] [nm] | absorption in water (λabs) [4] [nm] | Max Abs [5] [nm] | Max Em [5] [nm] | Absorption of IgG conjugates [5] [nm] | Emission of IgG conjugates [5] [nm] | further results
CN1CCN(c2ccc3[nH]c(-c4ccc5[nH]c(-c6ccc(OCCCCNC(=O)CCSCC[Si]7(C)C8=CC(=[N+](C)C)C=CC8=C(c8ccccc8C(=O)[O-])c8ccc(N(C)C)cc87)cc6)nc5c4)nc3c2)CC1 (stereo not shown) [Compound 4] |  |  |  |  |  |  |  |  |  |  | mean nuclear signal intensity, higher than in cells stained with SiR-Hoechst (Live HeLa cells [1]; live HeLa, 30 min 37 °C, Cy5 channel, averaged ratios of fluorescence intensity): 48%; staining brightness compared with SiR-Hoechst (Live HeLa cells [1]; live cells): noticeably brighter
CC(=O)O[C@@]12CO[C@@H]1C[C@H](O)[C@@]1(C)C(=O)[C@H](O)C3=C(C)[C@@H](OC(=O)[C@H](O)[C@@H](NC(=O)CCCCCNC(=O)CCSCC[Si]4(C)C5=CC(=[N+](C)C)C=CC5=C(c5ccccc5C(=O)[O-])c5ccc(N(C)C)cc54)c4ccccc4)C[C@@](O)([C@@H](OC(=O)c4ccccc4)C12)C3(C)C (stereo partly shown) [Compound 5] |  |  |  |  |  |  |  |  |  |  | fluorescence signal compared with SiR-Taxol (tubulin [2]): brighter signal than cells stained with SiR-Taxol; Max Abs ([3]; Solvent MeOH/HCl): 650 nm; Max Em ([3]; Solvent MeOH/HCl): 676 nm
CN(C)c1ccc2c(c1)[Si](C)(C)C1=CC(=[N+](C)C)C=CC1=C2c1ccccc1C(=O)N1CCC(C(=O)O)CC1 [Compound 7A] |  |  |  |  |  |  |  |  |  |  | Max Abs ([3]; Solvent MeOH): 657 nm; Max Em ([3]; Solvent MeOH): 682 nm
CN1CCN(c2ccc3[nH]c(-c4ccc5[nH]c(-c6ccc(OCCCCNC(=O)C7CCN(C(=O)c8ccccc8C8=C9C=CC(=[N+](C)C)C=C9[Si](C)(C)c9cc(N(C)C)ccc98)CC7)cc6)nc5c4)nc3c2)CC1 [Compound 7] |  |  |  |  |  |  |  |  |  |  | staining brightness, Compound 7 vs TO-PRO-3 (Fixed HeLa cells; 30 min RT): unexpectedly brighter than TO-PRO-3 staining; fluorescence after a 1 minute exposure to excitation light (Fixed HeLa cells): still retained substantial fluorescence; Max Abs ([3]; Solvent TE): 672 nm; Max Em ([3]; Solvent TE): 678 nm
C=C[Si]1(C=C)c2cc(N(C)C)ccc2C2(OC(=O)c3ccccc32)c2ccc(N(C)C)cc21 [Compound 11, Si,Si-Divinyl-N,N-tetramethyl-SiR] | 670 | 683 | 0.38 | 38 | 683 | 670 | 671 | 693 | 671 | 692 | 
CN1CCN(c2ccc3nc(-c4ccc5nc(-c6ccc(OCCCCNC(=O)c7ccc(C(=O)[O-])c(C8=C9C=CC(=[N+](C)C)C=C9[Si](C)(C)c9cc(N(C)C)ccc98)c7)cc6)[nH]c5c4)[nH]c3c2)CC1 [SiR-Hoechst] |  |  |  |  |  |  |  |  |  |  | signal on the DAPI channel (Live HeLa cells [6]): almost no signals were observed
C[n+]1c(/C=C/C=C2\C=CN(CCC[N+](C)(C)C)c3ccccc32)sc2ccccc21 [TO-PRO-3, reference compound] |  |  |  |  |  |  |  |  |  |  | fluorescence after a 1 minute exposure to excitation light (Fixed HeLa cells): little to no fluorescence was observable; also recorded: more diminished
Si,Si-dimethyl-N, N-dimethyl-SiR [Compound 13] | 630 | 642 | 0.5 | 50 | 642 | 630 | 635 | 655 | 635 | 655 | shift of absorption maxima when one methyl group on each of the two exocyclic amines was eliminated ([4]; relative to Compound 12): 30 nm; resistance to photobleaching (A549 cells): substantially resistant to photobleaching; also recorded: much more resistant to photobleaching
Si,Si-dimethyl-N, N-tetramethyl-SiR [Compound 12] | 661 | 673 | 0.45 | 45 | 673 | 661 | 662 | 681 | 664 | 683 | shift of absorption maxima to blue when each vinyl group was changed to a methyl [4]: about 5 nm
Si-vinyl-Si-methyl-N,N-tetramethyl-SiR [Compound 10A] |  |  |  | 41 | 678 | 666 |  |  | 668 | 688 | shift of absorption maxima to blue when each vinyl group was changed to a methyl [4]: about 5 nm; photobleaching during imaging / photostability vs AF647 (tubulin [7]): better photostability than AF647; target specificity, off-target or background fluorescence (tubulin [7]): no off-target or background fluorescence; brightness compared with AF647 (tubulin [7]; Cy5 channel): less bright than AF647
